Data reported in patent US10730858B2, “Lactam, cyclic urea and carbamate, and triazolone derivatives as potent and selective rock inhibitors” (BRISTOL-MYERS SQUIBB COMPANY, priority 2016, dated 2020).
pIC50: −log10 of the molar value. Where two headings read alike, the source gives them in different places.

Assays:
ROCK2 = ROCK2 (Homo sapiens, UniProt O75116); assay: ROCK2 assay (Caliper LABCHIP peptide phosphorylation, kinase inhibition); assay type: biochemical; settings: 5 μM ATP, 1.5 μM peptide substrate
Chain of ROCK2 (O75116 whole entry, species assumed): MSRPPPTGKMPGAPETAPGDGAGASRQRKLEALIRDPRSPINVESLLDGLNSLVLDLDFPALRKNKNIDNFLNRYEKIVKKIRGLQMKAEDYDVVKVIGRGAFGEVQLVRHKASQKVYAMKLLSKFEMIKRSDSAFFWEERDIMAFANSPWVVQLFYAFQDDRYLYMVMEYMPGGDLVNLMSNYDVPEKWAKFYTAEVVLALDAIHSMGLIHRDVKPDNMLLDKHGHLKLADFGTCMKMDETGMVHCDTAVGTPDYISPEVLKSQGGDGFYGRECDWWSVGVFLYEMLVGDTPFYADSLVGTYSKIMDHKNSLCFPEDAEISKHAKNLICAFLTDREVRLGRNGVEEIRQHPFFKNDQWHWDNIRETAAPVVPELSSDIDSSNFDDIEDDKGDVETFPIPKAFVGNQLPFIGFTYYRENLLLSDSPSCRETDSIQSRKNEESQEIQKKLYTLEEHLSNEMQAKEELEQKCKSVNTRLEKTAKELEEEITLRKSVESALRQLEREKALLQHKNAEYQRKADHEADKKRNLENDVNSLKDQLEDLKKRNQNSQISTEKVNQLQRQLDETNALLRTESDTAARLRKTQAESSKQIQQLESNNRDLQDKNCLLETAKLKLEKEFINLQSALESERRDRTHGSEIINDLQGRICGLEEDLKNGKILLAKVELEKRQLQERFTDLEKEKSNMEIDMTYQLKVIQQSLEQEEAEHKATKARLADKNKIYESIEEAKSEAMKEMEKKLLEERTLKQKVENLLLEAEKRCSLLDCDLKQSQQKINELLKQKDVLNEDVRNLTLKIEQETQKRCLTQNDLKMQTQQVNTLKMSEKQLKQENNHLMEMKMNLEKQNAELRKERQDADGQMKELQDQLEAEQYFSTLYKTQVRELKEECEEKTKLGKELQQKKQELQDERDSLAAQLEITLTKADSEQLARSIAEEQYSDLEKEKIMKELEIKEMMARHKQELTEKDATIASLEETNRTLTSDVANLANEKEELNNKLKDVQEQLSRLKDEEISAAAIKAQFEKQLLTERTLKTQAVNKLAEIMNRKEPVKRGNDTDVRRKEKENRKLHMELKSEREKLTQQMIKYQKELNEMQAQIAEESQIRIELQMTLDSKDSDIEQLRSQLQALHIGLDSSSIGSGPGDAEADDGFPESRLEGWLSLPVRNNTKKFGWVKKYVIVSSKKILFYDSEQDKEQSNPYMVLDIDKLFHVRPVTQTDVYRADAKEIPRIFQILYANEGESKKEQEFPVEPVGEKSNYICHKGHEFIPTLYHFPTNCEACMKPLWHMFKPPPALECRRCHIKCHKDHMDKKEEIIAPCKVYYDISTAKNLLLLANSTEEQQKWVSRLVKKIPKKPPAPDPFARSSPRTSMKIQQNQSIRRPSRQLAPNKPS
Procedure: The effectiveness of compounds of the present invention as ROCK inhibitors can be determined in a 30 μL assay containing 20 mM HEPES, pH 7.5, 20 mM MgCl2, 0.015% Brij-35, 4 mM DTT, 5 μM ATP and 1.5 μM peptide substrate (FITC-AHA-AKRRRLSSLRA-OH) (SEQ ID NO. 1). Compounds were dissolved in DMSO so that the final concentration of DMSO was <2%, and the reaction was initiated with Rho kinase variants. After incubation, the reaction was terminated by the addition of EDTA and the phosphorylated and non-phosphorylated peptides separated using a LABCHIP® 3000 Reader (Caliper Life Sciences). […] Compounds were tested in dose-response format, and the inhibition of kinase activity was calculated at each concentration of compound. The inhibition data were fit using a curve-fitting program to determine the IC50; i.e., the concentration of compound required to inhibit 50% of kinase activity.
Representative Examples were tested in the ROCK2 assay described above and found having ROCK2 inhibitory activity. The ranges of the ROCK2 IC50 values are as follows: ROCK2 IC50: ++++ (<10 nM) +++ (10-100 nM) ++ (100-500 nM) + (500-2000 nM)

[1] = tested on: congestive heart failure in Dahl salt-sensitive rats; settings: rat, in vivo; cited from earlier work
neointimal formation = settings: rats; cited from earlier work
[2] = tested on: rat models of hypertension; settings: cited from earlier work
rat stroke model = settings: in vivo; cited from earlier work
[3] = tested on: IL-1 beta-induced coronary stenosis; settings: long term treatment; cited from earlier work

| pIC50 (ROCK2) | Structure (SMILES) | other results |
| --- | --- | --- |
| 7.00 to 8.00 | O=C1C(Nc2ccc3c(c2)OCCO3)CCN1c1ccc(-c2n[nH]c(=O)c3ccccc23)cc1 (stereo not shown) [Example 50, 4-(4-{3-[(2,3-dihydro-1,4-benzodioxin-6-yl)amino]-2-oxopyrrolidin-1-yl}phenyl)-1,2-dihydrophthalazin-1-one] |  |
| 7.00 to 8.00 | O=C1C(Nc2ccc3c(c2)OC(F)(F)O3)CCN1c1ccc(-c2n[nH]c(=O)c3ccccc23)cc1 (stereo not shown) [Example 51, 4-(4-{3-[(2,2-difluoro-2H-1,3-benzodioxol-5-yl)amino]-2-oxopyrrolidin-1-yl}phenyl)-1,2-dihydrophthalazin-1-one] |  |
| > 8.00 | O=C1C(Nc2cccc(OC(F)(F)F)c2)CCN1c1ccc(-c2n[nH]c(=O)c3ccccc23)cc1 (stereo not shown) [Example 52, 4-[4-(2-oxo-3-{[3-(trifluoromethoxy)phenyl]amino}pyrrolidin-1-yl)phenyl]-1,2-dihydrophthalazin-1-one] |  |
| 6.30 to 7.00 | O=c1[nH]nc(-c2ccc(-n3ncn(Cc4cccc(F)c4)c3=O)cc2)c2ccccc12 [Example 53, 4-(4-{4-[(3-fluorophenyl)methyl]-5-oxo-4,5-dihydro-1H-1,2,4-triazol-1-yl}phenyl)-1,2-dihydrophthalazin-1-one] |  |
| 5.70 to 6.30 | CC(c1ccccc1)n1cnn(-c2ccc(-c3n[nH]c(=O)c4ccccc34)cc2)c1=O (stereo not shown) [Example 54, 4-{4-[5-oxo-4-(1-phenylethyl)-4,5-dihydro-1H-1,2,4-triazol-1-yl]phenyl}-1,2-dihydrophthalazin-1-one] |  |
| 7.00 to 8.00 | CC(C)Oc1cccc(NC2CCN(c3ccc(-c4n[nH]c(=O)c5ccccc45)cc3)C2=O)c1 (stereo not shown) [Example 57, 4-[4-(2-oxo-3-{[3-(propan-2-yloxy)phenyl]amino}pyrrolidin-1-yl)phenyl]-1,2-dihydrophthalazin-1-one] |  |
| 6.30 to 7.00 | N#Cc1cnc(NC2CCN(c3ccc(-c4n[nH]c(=O)c5ccccc45)cc3)C2=O)s1 (stereo not shown) [Example 59, 2-({2-oxo-1-[4-(4-oxo-3,4-dihydrophthalazin-1-yl)phenyl]pyrrolidin-3-yl}amino)-1,3-thiazole-5-carbonitrile] |  |
| 7.00 to 8.00 | O=C1C(Nc2ccc(OC(F)F)cc2)CCN1c1ccc(-c2n[nH]c(=O)c3ccccc23)cc1 (stereo not shown) [Example 60, 4-[4-(3-{[4-(difluoromethoxy)phenyl]amino}-2-oxopyrrolidin-1-yl)phenyl]-1,2-dihydrophthalazin-1-one] |  |
| 7.00 to 8.00 | COc1ccccc1NC1CCN(c2ccc(-c3n[nH]c(=O)c4ccccc34)cc2)C1=O (stereo not shown) [Example 61, 4-(4-{3-[(2-methoxyphenyl)amino]-2-oxopyrrolidin-1-yl}phenyl)-1,2-dihydrophthalazin-1-one] |  |
| 6.30 to 7.00 | O=c1[nH]nc(-c2ccc(-n3ncn(Cc4cccc(OC(F)F)c4)c3=O)cc2)c2ccccc12 [Example 63, 4-[4-(4-{[3-(difluoromethoxy)phenyl]methyl}-5-oxo-4,5-dihydro-1H-1,2,4-triazol-1-yl)phenyl]-1,2-dihydrophthalazin-1-one] |  |
| 7.00 to 8.00 | CC(C)n1ccc(NC2CCN(c3ccc(-c4n[nH]c(=O)c5ccccc45)cc3)C2=O)n1 (stereo not shown) [Example 64, 4-[4-(2-oxo-3-{[1-(propan-2-yl)-1H-pyrazol-3-yl]amino}pyrrolidin-1-yl)phenyl]-1,2-dihydrophthalazin-1-one] |  |
| 6.30 to 7.00 | Cn1ccc(NC2CCN(c3ccc(-c4n[nH]c(=O)c5ccccc45)cc3)C2=O)n1 (stereo not shown) [Example 65, 4-(4-{3-[(1-methyl-1H-pyrazol-3-yl)amino]-2-oxopyrrolidin-1-yl}phenyl)-1,2-dihydrophthalazin-1-one] |  |
| 7.00 to 8.00 | CS(=O)(=O)c1cccc(NC2CCN(c3ccc(-c4n[nH]c(=O)c5ccccc45)cc3)C2=O)c1 (stereo not shown) [Example 67, 4-(4-{3-[(3-methanesulfonylphenyl)amino]-2-oxopyrrolidin-1-yl}phenyl)-1,2-dihydrophthalazin-1-one] |  |
| 7.00 to 8.00 | CSc1cccc(NC2CCN(c3ccc(-c4n[nH]c(=O)c5ccccc45)cc3)C2=O)c1 (stereo not shown) [Example 68, 4-[4-(3-{[3-(methylsulfanyl)phenyl]amino}-2-oxopyrrolidin-1-yl)phenyl]-1,2-dihydrophthalazin-1-one] |  |
| 7.00 to 8.00 | O=C1C(Nc2cccc(F)n2)CCN1c1ccc(-c2n[nH]c(=O)c3ccccc23)cc1 (stereo not shown) [Example 69, 4-(4-{3-[(6-fluoropyridin-2-yl)amino]-2-oxopyrrolidin-1-yl}phenyl)-1,2-dihydrophthalazin-1-one] |  |
| 6.30 to 7.00 | O=C1C(Nc2ccc3c(c2)CCNC3)CCN1c1ccc(-c2n[nH]c(=O)c3ccccc23)cc1 (stereo not shown) [Example 70, 4-(4-{2-oxo-3-[(1,2,3,4-tetrahydroisoquinolin-6-yl)amino]pyrrolidin-1-yl}phenyl)-1,2-dihydrophthalazin-1-one] |  |
| 7.00 to 8.00 | CC(C)c1cc(NC2CCN(c3ccc(-c4n[nH]c(=O)c5ccccc45)cc3)C2=O)n(C)n1 (stereo not shown) [Example 71, 4-[4-(3-{[1-methyl-3-(propan-2-yl)-1H-pyrazol-5-yl]amino}-2-oxopyrrolidin-1-yl)phenyl]-1,2-dihydrophthalazin-1-one] |  |
| 5.70 to 6.30 | COc1cccc(Cn2c(C)nn(-c3ccc(-c4c[nH]c(=O)c5ccsc45)cc3)c2=O)c1 [Example 72, 4-[(3-methoxyphenyl)methyl]-3-methyl-1-(4-{4-oxo-3aH,4H,5H,7aH-thieno[3,2-c]pyridin-7-yl}phenyl)-4,5-dihydro-1H-1,2,4-triazol-5-one] |  |
| 7.00 to 8.00 | N#Cc1ccnc(NC2CCN(c3ccc(-c4n[nH]c(=O)c5ccccc45)cc3)C2=O)c1 (stereo not shown) [Example 74, 2-({2-oxo-1-[4-(4-oxo-3,4-dihydrophthalazin-1-yl)phenyl]pyrrolidin-3-yl}amino)pyridine-4-carbonitrile] |  |
| 5.70 to 6.30 | CN1CCc2cc(NC3CCN(c4ccc(-c5n[nH]c(=O)c6ccccc56)cc4)C3=O)ccc2C1 (stereo not shown) [Example 75, 4-(4-{3-[(2-methyl-1,2,3,4-tetrahydroisoquinolin-6-yl)amino]-2-oxopyrrolidin-1-yl}phenyl)-1,2-dihydrophthalazin-1-one] |  |
| 7.00 to 8.00 | COc1cccc(OC2CCN(c3ccc(-c4n[nH]c(=O)c5ccccc45)cc3)C2=O)c1 (stereo not shown) [Example 86, 4-{4-[3-(3-methoxyphenoxy)-2-oxopyrrolidin-1-yl]phenyl}-1,2-dihydrophthalazin-1-one] |  |
| 7.00 to 8.00 | COc1ccc(F)c(OC2CCN(c3ccc(-c4n[nH]c(=O)c5ccccc45)cc3)C2=O)c1 (stereo not shown) [Example 87, 4-{4-[3-(2-fluoro-5-methoxyphenoxy)-2-oxopyrrolidin-1-yl]phenyl}-1,2-dihydrophthalazin-1-one] |  |
| 7.00 to 8.00 | COc1cc(OC2CCN(c3ccc(-c4n[nH]c(=O)c5ccccc45)cc3)C2=O)ccc1F (stereo not shown) [Example 88, 4-{4-[3-(4-fluoro-3-methoxyphenoxy)-2-oxopyrrolidin-1-yl]phenyl}-1,2-dihydrophthalazin-1-one] |  |
| 7.00 to 8.00 | COc1cc(F)cc(OC2CCN(c3ccc(-c4n[nH]c(=O)c5ccccc45)cc3)C2=O)c1 (stereo not shown) [Example 89, 4-{4-[3-(3-fluoro-5-methoxyphenoxy)-2-oxopyrrolidin-1-yl]phenyl}-1,2-dihydrophthalazin-1-one] |  |
|  | C[C@@H](N)[C@H]1CC[C@H](C(=O)Nc2ccncc2)CC1 [Example Y-27632, Y-27632] | ventricular hypertrophy, fibrosis and function [1]: improve ventricular hypertrophy, fibrosis and function; neointimal formation (neointimal formation): inhibited neointimal formation; blood pressure ([2]; control rats): only a minor effect; blood pressure ([2]; spontaneously hypertensive rat, renal hypertensive rat and deoxycortisone acetate salt hypertensive rat models): significantly decrease blood pressure |
|  | O=S(=O)(c1cccc2cnccc12)N1CCCNCC1 [fasudil] | infarct size and neurologic deficit (rat stroke model): reduce both the infarct size and neurologic deficit; coronary constrictive remodeling [3]: promote a regression of coronary constrictive remodeling; coronary stenosis [3]: progressively reduce coronary stenosis |
